Where two headings read alike, the source gives them in different places.
Assays:
mu opioid receptors = settings: agonist morphine
Protocol: (§1) Physiological data for guinea pig ileal longitudinal muscle (GPI) was obtained by the methodology of H. P. Rang, “Stimulant Actions of Volatile Anaesthetics on Smooth Muscle,” Brit. […] In vivo assays were done s.c. on mice.
(§2) 1. Guinea Pig Ileal Longitudinal Muscle (GPI). Ilea from guinea pigs were taken approximately 10 cm from the ileocecal junction, and a strip of longitudinal muscle with the myenteric plexus attached was prepared by the method of […] et al., Brit. […] A 1 cm portion of this strip was then mounted between two platinum electrodes placed in a 10 ml organ bath and connected to an isometric transducer; contractions were recorded on a polygraph. Contractions of the ileal strip were initiated by supramaximal rectangular pulses in all preparations (80 V of 0.5 ms duration at a frequency of 0.1 Hz). […] The organ bath was maintained at 36°-37° C. The longitudinal muscle strip was allowed to equilibrate with continuous stimulation for a minimum of 90 min. Cumulative concentration-response curves were determined after drugs were added to the bath in preselected amounts and washed out with buffer after noting their maximum effects.
(§3) Concentration-response curves were obtained in the absence (control) and the presence of the antagonist are expressed as IC50 values. The IC50 ratio represents the IC50 in the presence of the antagonist divided by the control IC50 value in the same tissue. Therefore, a high IC50 ratio represents a correspondingly high degree of antagonism at a particular receptor. This IC50 ratio was employed to calculate the Ke value using the equation Ke=[antagonist]/(IC50 ratio-1). Therefore, a low Ke represents a correspondingly high degree of binding at a particular receptor.

kappa opioid receptors = target: T1, kappa opioid receptors (Cavia porcellus, UniProt P41144); assay: Guinea pig ileal longitudinal muscle (GPI), antagonism of ethylketazocine (EK); assay type: cell-based; settings: for Kb: 15 min incubation, Ke=[antagonist]/(IC50 ratio-1); for Selectivity κ/μ: GPI EK versus GPI morphine; for Selectivity κ/δ: GPI EK versus MVD DADLE; for kappa antagonist potency compared with norBNI: GPI, EK
T1 construct: a strip of longitudinal muscle with the myenteric plexus attached was prepared; from tissue; host or cells: guinea pig ileal longitudinal muscle with myenteric plexus (Dunkin-Hartley males)
Protocol: as §1, §2, §3

delta opioid receptors = delta opioid receptors (Mus musculus, UniProt P32300); assay: Mouse vas deferens (MVD), antagonism of DADLE (D); assay type: cell-based; parameters: Both vasa deferentia were dissected out of mice and mounted singly; from tissue; host or cells: mouse vas deferens (Swiss-Webster males) for A3; whole mouse in vivo for A7; settings: antagonist 100 nM; agonist DADLE
Protocol: 2. Mouse Vas Deferens (MVD). This assay was performed according to the description by G. Henderson et al., Brit. […] Both vasa deferentia were dissected out of mice and mounted singly through two platinum ring electrodes in a 10 ml organ bath. The bath contained Krebs bicarbonate solution that was continuously bubbled with 95% O2 and 5% CO2. The organ bath was maintained at 37° C. The tissue was attached to an isometric transducer and stimulated transmurally with rectangular pulses ([…], 1 ms duration, supramaximal voltage). Drugs were added cumulatively to the bath in preselected amounts and washed out after noting their maximum effects.
as §3

[1] = system: rats that were selectively bred for high voluntary ethanol drinking; settings: compared to peptidyl delta-opioid receptor antagonists; cited from earlier work
[2] = recovering alcoholics; cited from earlier work
rat model of alcoholism = settings: cited from earlier work
delta opioid receptor = delta opioid receptor (Rattus norvegicus, UniProt P33533); settings: cited from earlier work
[3] = antagonist 100 nM, agonist ethylketazocine
[4] = antagonist 100 nM, IC50 agonist + antagonist/IC50 agonist, agonist ethylketazocine
[5] = antagonist 10 nM, agonist ethylketazocine

delta opioid receptors, sequence (P32300 whole entry): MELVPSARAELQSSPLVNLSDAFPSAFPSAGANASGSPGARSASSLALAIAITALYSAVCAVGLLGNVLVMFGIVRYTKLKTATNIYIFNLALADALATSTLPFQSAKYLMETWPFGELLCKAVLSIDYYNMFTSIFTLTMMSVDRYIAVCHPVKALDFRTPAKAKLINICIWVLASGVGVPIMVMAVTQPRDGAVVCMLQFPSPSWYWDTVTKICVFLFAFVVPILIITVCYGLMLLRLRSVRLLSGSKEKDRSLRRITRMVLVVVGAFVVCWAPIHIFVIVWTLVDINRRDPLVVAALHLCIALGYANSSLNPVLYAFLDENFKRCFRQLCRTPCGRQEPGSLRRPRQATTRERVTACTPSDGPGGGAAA
T1 sequence (P41144 whole entry): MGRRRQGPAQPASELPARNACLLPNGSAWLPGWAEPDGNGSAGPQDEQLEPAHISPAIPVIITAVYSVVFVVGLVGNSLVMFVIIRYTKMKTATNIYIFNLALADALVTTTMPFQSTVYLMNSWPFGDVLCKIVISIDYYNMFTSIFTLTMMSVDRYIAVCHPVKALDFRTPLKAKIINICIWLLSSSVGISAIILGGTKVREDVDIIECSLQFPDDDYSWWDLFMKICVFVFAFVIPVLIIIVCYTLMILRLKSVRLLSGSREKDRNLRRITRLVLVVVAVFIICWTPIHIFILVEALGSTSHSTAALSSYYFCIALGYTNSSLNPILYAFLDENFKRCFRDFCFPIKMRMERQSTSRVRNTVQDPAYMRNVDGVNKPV
delta opioid receptor, sequence (P33533 whole entry): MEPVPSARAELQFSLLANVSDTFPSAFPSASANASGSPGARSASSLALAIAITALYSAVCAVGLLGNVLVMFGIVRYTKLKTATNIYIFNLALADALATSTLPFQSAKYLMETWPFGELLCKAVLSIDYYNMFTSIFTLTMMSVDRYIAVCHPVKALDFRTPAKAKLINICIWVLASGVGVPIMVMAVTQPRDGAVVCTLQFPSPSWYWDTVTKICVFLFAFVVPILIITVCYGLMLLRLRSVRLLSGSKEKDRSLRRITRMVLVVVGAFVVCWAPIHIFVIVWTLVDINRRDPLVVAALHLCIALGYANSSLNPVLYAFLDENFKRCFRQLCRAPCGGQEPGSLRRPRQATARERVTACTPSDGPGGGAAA

## Oc1ccc2c3c1OC1c4[nH]c5c(c4CC4(O)C(C2)N(CC2CC2)CC[C@]314)C[C@@]1(O)C2Cc3ccc(O)c4c3[C@@]1(CCN2CC1CC1)[C@H]5O4 (some centres unmarked) [norBinaltorphimine, reference compound]
Mu opioid receptors; antagonist 100 nM
  Ke, M (GPI): 14 nM
Kappa opioid receptors; [3]
  Kb: 560 pM

## 17-(Cyclopropylmethyl)-6,7-dehydro-4,5α-epoxy-3,14-dihydroxy-5′-[(N^2-propanamidino)methyl]-6,7-2′,3′-indolomorphinan Dihydrochloride [Compound 1]
Mu opioid receptors; antagonist 100 nM
  IC50 ratio, M (GPI): 11.3 ± 2.6
  Ke, M (GPI): 9.71 nM
Delta opioid receptors
  IC50 ratio, D (MVD): 2.28 ± 0.57
Kappa opioid receptors
  Selectivity κ/μ: 14
  Selectivity κ/δ: 69
Kappa opioid receptors; [3]
  Kb: 660 pM
Kappa opioid receptors; [4]
  IC50 ratio, EK (GPI): 159 ± 43

## 17-(Cyclopropylmethyl)-6,7-dehydro-4,5α-epoxy-3,14-dihydroxy-5 ′-[N^2-(4-dimethylaminobutyrylamidino)methyl]-6,7-2′,3′-indolomorphinan Trihydrochloride [Compound 44]
Mu opioid receptors; antagonist 100 nM
  IC50 ratio, M (GPI): 12.1 ± 3.4
  Ke, M (GPI): 9.01 nM
Delta opioid receptors
  IC50 ratio, D (MVD): 2.71 ± 0.44
Kappa opioid receptors
  Selectivity κ/μ: 61
  Selectivity κ/δ: 250
  kappa antagonist potency compared with norBNI: more potent
Kappa opioid receptors; GPI/MVD
  kappa selectivity compared with norBNI: more selective
  potency and selectivity among the compounds: greatest poteny and selectivity
  potency and selectivity compared with norBNI: more potent and selective
Kappa opioid receptors; [3]
  Kb: 147 pM
Kappa opioid receptors; [4]
  IC50 ratio, EK (GPI): 679 ± 273

## Oc1ccc2c3c1O[C@H]1c4oc5ccccc5c4C[C@@]4(O)[C@@H](C2)N(CC2CC2)CC[C@]314 [NTB]
[1]
  suppression of ethanol drinking: unexpectedly prolonged suppression of ethanol drinking

## 17-(Cyclopropylmethyl)-6,7-dehydro-4,5α-epoxy-3,14-dihydroxy-5′-[(N^2-acetamidino)methyl]-6,7-2′,3′-indolomorphinan Dihydrochloride [Compound 3]
Mu opioid receptors; antagonist 100 nM
  IC50 ratio, M (GPI): 13.4 ± 2.2
  Ke, M (GPI): 8.04 nM
Delta opioid receptors
  IC50 ratio, D (MVD): 2.81 ± 0.62
Kappa opioid receptors
  Selectivity κ/μ: 9
  Selectivity κ/δ: 44
Kappa opioid receptors; [3]
  Kb: 810 pM
Kappa opioid receptors; [4]
  IC50 ratio, EK (GPI): 124 ± 33

## O=C1CC[C@@]2(O)[C@H]3Cc4ccc(O)c5c4[C@@]2(CCN3CC2CC2)[C@H]1O5 [naltrexone]
[2]
  incidence of relapse: reduce the incidence of relapse

## 17-(Cyclopropylmethyl)-6,7-dehydro-4,5α-epoxy-3,14-dihydroxy-5′-[N-(β-diethylamino)ethylcarboxyamido]-6,7-2′,3′-indolomorphinan Dihydrochloride [Compound 38]
Mu opioid receptors; antagonist 50 nM
  IC50 ratio, M (GPI): 17.1 ± 2.1
  Ke, M (GPI): (50 nm) 3.14 nM
Delta opioid receptors
  IC50 ratio, D (MVD): 1.95 ± 0.56
Kappa opioid receptors
  Selectivity κ/μ: 16
  Selectivity κ/δ: 329
  kappa antagonist potency compared with norBNI: more potent
Kappa opioid receptors; [5]
  IC50 ratio, EK (GPI): 31.8 ± 7.7
  Ke, EK (GPI): (10 nm) 0.320 nM

## 17-(Cyclopropylmethyl)-6,7-dehydro-4,5α-epoxy-3,14-dihydroxy-5′-[N^2-(N,N-dimethylglycinamidino)methyl]-6,7-2′,3′-indolomorphinan Trihydrochloride [Compound 42]
Mu opioid receptors; antagonist 100 nM
  IC50 ratio, M (GPI): 10.0 ± 0.4
  Ke, M (GPI): 11.1 nM
Delta opioid receptors
  IC50 ratio, D (MVD): 4.91 ± 1.38
  Ke, D (MVD): 25.6 nM
Kappa opioid receptors
  Selectivity κ/μ: 55
  Selectivity κ/δ: 111
  kappa antagonist potency compared with norBNI: more potent
Kappa opioid receptors; GPI/MVD
  kappa selectivity compared with norBNI: more selective
  potency and selectivity compared with norBNI: more potent and selective
Kappa opioid receptors; [3]
  Kb: 183 pM
Kappa opioid receptors; [4]
  IC50 ratio, EK (GPI): 547 ± 125

## 17-(Cyclopropylmethyl)-6,7-dehydro-4,5α-epoxy-3,14-dihydroxy-5′-[(N^2-3-methylpentanamidino)methyl]-6,7-2′,3′-indolomorphinan Dihydrochloride [Compound 2]
Mu opioid receptors; antagonist 100 nM
  IC50 ratio, M (GPI): 31.6 ± 10.7
  Ke, M (GPI): 3.27 nM
Delta opioid receptors
  IC50 ratio, D (MVD): 1.19 ± 0.51
Kappa opioid receptors
  Selectivity κ/μ: 12
  Selectivity κ/δ: 310
  kappa antagonist potency compared with norBNI: more potent
Kappa opioid receptors; [3]
  Kb: 250 pM
Kappa opioid receptors; [4]
  IC50 ratio, EK (GPI): 394 ± 97

## C=CCN1CC[C@]23c4c5ccc(O)c4O[C@H]2C(=O)CC[C@@]3(O)[C@H]1C5 [Naloxone, naloxone]
Rat model of alcoholism
  ethanol and water intake: suppress ethanol but not water intake

## Oc1ccc2c3c1O[C@H]1c4[nH]c5ccccc5c4C[C@@]4(O)[C@@H](C2)N(CC2CC2)CC[C@]314 [NTI, naltrindole]
[1]
  suppression of ethanol drinking: unexpectedly prolonged suppression of ethanol drinking

## N,N-diallyl-Tyr-Aib-Aib-Phe-Leu-OH [ICI 174864]
Delta opioid receptor; ethanol drinking
  duration of action: very short duration of action
Delta opioid receptor; in vivo
  ethanol drinking: strongly inhibits ethanol drinking

## 17-(Cyclopropylmethyl)-6,7-dehydro-4,5α-epoxy-3,14-dihydroxy-5′-[(N^2-butyramidino)methy]-6,7-2′,3′-indolomorphinan Dihydrochloride [Compound 5]
Mu opioid receptors; antagonist 100 nM
  IC50 ratio, M (GPI): 18.2 ± 3.9
  Ke, M (GPI): 5.84 nM
Delta opioid receptors
  IC50 ratio, D (MVD): 3.00 ± 0.51
Kappa opioid receptors
  Selectivity κ/μ: 10
  Selectivity κ/δ: 62
  kappa antagonist potency compared with norBNI: more potent
Kappa opioid receptors; [3]
  Kb: 540 pM
Kappa opioid receptors; [4]
  IC50 ratio, EK (GPI): 185 ± 49

## 17-(Cyclopropylmethyl)-6,7-dehydro-4,5α-epoxy-3,14-dihydroxy-5′-[N-(β-dimethylamino)ethylcarboxamido]-6,7-2′,3′-indolomorphinan Dihydrochloride [Compound 45]
Mu opioid receptors; antagonist 100 nM
  IC50 ratio, M (GPI): 30.3 ± 3.6
  Ke, M (GPI): 3.41 nM
Delta opioid receptors
  IC50 ratio, D (MVD): 1.51 ± 0.42
Kappa opioid receptors
  Selectivity κ/μ: 6
  Selectivity κ/δ: 117
Kappa opioid receptors; [3]
  Kb: 568 pM
Kappa opioid receptors; [4]
  IC50 ratio, EK (GPI): 177 ± 54

## 17-(Cyclopropylmethyl)-6,7-dehydro-4,5α-epoxy-3,14-dihydroxy-51′-[(4-dimethylaminobutyryl)aminomethyl]-6,7-2′,3′-indolomorphinan Dihydrochloride [Compound 43]
Mu opioid receptors; antagonist 100 nM
  IC50 ratio, M (GPI): 19.0 ± 6.2
  Ke, M (GPI): 5.56 nM
Delta opioid receptors
  IC50 ratio, D (MVD): 1.20 ± 0.72
Kappa opioid receptors
  Selectivity κ/μ: 10
  Selectivity κ/δ: 166
  kappa antagonist potency compared with norBNI: more potent
Kappa opioid receptors; [3]
  Kb: 505 pM
Kappa opioid receptors; [4]
  IC50 ratio, EK (GPI): 199 ± 62
